Data: patent publication US20060154243A1 (priority 2003, published 2006)

Each sequence was assayed on rabbit serum obtained by immunizing with SARS-CoV strain Frankfurt 1.
Type: binding

Row | Sequence | Recognition by the rabbit serum
1 | VKPLLAPHHVVAVIQ | recognized by the rabbit serum

The sequences below were run on serum 6 (individual 6).
Type: binding, human

Row | Sequence | Binding of serum 6 to linear peptides of Orf14 of SARS-CoV TOR2
2 | ASTQREAEAAVKPLL | 0.5
3 | CQKASTQREAEAAVK | 0.2
4 | CYNFLKEQHCQKAST | 0.5
5 | EQHCQKASTQREAEA | 0.4
6 | FLKEQHCQKASTQRE | 0.2
7 | HCQKASTQREAEAAV | 0.6
8 | KASTQREAEAAVKPL | 0.3
9 | KEQHCQKASTQREAE | 0.3
10 | LKEQHCQKASTQREA | 0.2
11 | LPPCYNFLKEQHCQK | 0.2
12 | NFLKEQHCQKASTQR | 0.4
13 | VKPLLAPHHVVAVIQ | 0.5

What follows are sequences tested on control serum LUMC (pooled serum of ten healthy hospital workers).
Type: binding, human

Row | Sequence | Control serum LUMC linear peptides | Control serum LUMC looped peptides
14 | ASTQREAEAAVKPLL | 0.4 | 0.8
15 | CQKASTQREAEAAVK | 0.2 | 0.5
16 | CYNFLKEQHCQKAST | 0.3 | 0.5
17 | EQHCQKASTQREAEA | 0.4 | 0.8
18 | FLKEQHCQKASTQRE | 0.3 | 1.1
19 | HCQKASTQREAEAAV | 0.6 | 0.8
20 | KASTQREAEAAVKPL | 0.3 | 0.6
21 | KEQHCQKASTQREAE | 0.3 | 0.8
22 | LKEQHCQKASTQREA | 0.3 | 0.9
23 | LPPCYNFLKEQHCQK | 0.2 | 0.6
24 | NFLKEQHCQKASTQR | 0.7 | 0.7
25 | VKPLLAPHHVVAVIQ | 0.6 | 0.6

Each sequence was assayed on serum 2 (individual 2).
Type: binding, human

Row | Sequence | Binding of serum 2 to linear peptides of Orf14 of SARS-CoV TOR2
26 | ASTQREAEAAVKPLL | 0.4
27 | CQKASTQREAEAAVK | 0.3
28 | CYNFLKEQHCQKAST | 0.5
29 | EQHCQKASTQREAEA | 0.6
30 | FLKEQHCQKASTQRE | 0.3
31 | HCQKASTQREAEAAV | 0.9
32 | KASTQREAEAAVKPL | 0.3
33 | KEQHCQKASTQREAE | 0.4
34 | LKEQHCQKASTQREA | 0.4
35 | LPPCYNFLKEQHCQK | 0.2
36 | NFLKEQHCQKASTQR | 0.4
37 | VKPLLAPHHVVAVIQ | 0.6

These sequences were tested on serum SARS-green.
Type: binding, human

Row | Sequence | Binding of serum SARS-green to linear peptides of Orf14 of SARS-CoV TOR2
38 | ASTQREAEAAVKPLL | 0.4
39 | CQKASTQREAEAAVK | 0.0
40 | CYNFLKEQHCQKAST | 0.4
41 | EQHCQKASTQREAEA | 0.3
42 | FLKEQHCQKASTQRE | 0.1
43 | HCQKASTQREAEAAV | 0.4
44 | KASTQREAEAAVKPL | 0.1
45 | KEQHCQKASTQREAE | 0.1
46 | LKEQHCQKASTQREA | 0.1
47 | LPPCYNFLKEQHCQK | 0.0
48 | NFLKEQHCQKASTQR | 0.3
49 | VKPLLAPHHVVAVIQ | 0.3

These sequences were tested on serum 1b (individual 1, late serum).
Type: binding, human

Row | Sequence | Binding of serum 1b to linear peptides of Orf14 of SARS-CoV TOR2
50 | ASTQREAEAAVKPLL | 0.3
51 | CQKASTQREAEAAVK | 0.2
52 | CYNFLKEQHCQKAST | 0.3
53 | EQHCQKASTQREAEA | 0.4
54 | FLKEQHCQKASTQRE | 0.3
55 | HCQKASTQREAEAAV | 0.5
56 | KASTQREAEAAVKPL | 0.3
57 | KEQHCQKASTQREAE | 0.3
58 | LKEQHCQKASTQREA | 0.2
59 | LPPCYNFLKEQHCQK | 0.2
60 | NFLKEQHCQKASTQR | 0.3
61 | VKPLLAPHHVVAVIQ | 0.5

The sequences below were run on sera SARS-green, SARS-yellow, 1a, 1b, 2, 6, 37, 62 and London.
Type: binding, human

Row | Sequence | Recognition of the peptide by sera of individuals infected by SARS-CoV, form recognized
62 | ASTQREAEAAVKPLL | recognized in looped form
63 | CQKASTQREAEAAVK | recognized in looped form
64 | CYNFLKEQHCQKAST | recognized in looped form
65 | EQHCQKASTQREAEA | recognized in looped form
66 | FLKEQHCQKASTQRE | recognized in looped form
67 | HCQKASTQREAEAAV | recognized in looped form
68 | KASTQREAEAAVKPL | recognized in looped form
69 | KEQHCQKASTQREAE | recognized in looped form
70 | LKEQHCQKASTQREA | recognized in looped form
71 | LPPCYNFLKEQHCQK | recognized in looped form
72 | NFLKEQHCQKASTQR | recognized in looped form

Each sequence was assayed on serum SARS-yellow.
Type: binding, human

Row | Sequence | Binding of serum SARS-yellow to linear peptides of Orf14 of SARS-CoV TOR2
73 | ASTQREAEAAVKPLL | 0.4
74 | CQKASTQREAEAAVK | 0.1
75 | CYNFLKEQHCQKAST | 0.1
76 | EQHCQKASTQREAEA | 0.4
77 | FLKEQHCQKASTQRE | 0.2
78 | HCQKASTQREAEAAV | 0.6
79 | KASTQREAEAAVKPL | 0.1
80 | KEQHCQKASTQREAE | 0.2
81 | LKEQHCQKASTQREA | 0.3
82 | LPPCYNFLKEQHCQK | 0.0
83 | NFLKEQHCQKASTQR | 0.3
84 | VKPLLAPHHVVAVIQ | 0.4

The sequences below were run on serum London.
Type: binding, human

Row | Sequence | Binding of serum London to linear peptides of Orf14 of SARS-CoV TOR2
85 | ASTQREAEAAVKPLL | 0.4
86 | CQKASTQREAEAAVK | 0.2
87 | CYNFLKEQHCQKAST | 0.7
88 | EQHCQKASTQREAEA | 0.5
89 | FLKEQHCQKASTQRE | 0.3
90 | HCQKASTQREAEAAV | 0.7
91 | KASTQREAEAAVKPL | 0.2
92 | KEQHCQKASTQREAE | 0.3
93 | LKEQHCQKASTQREA | 0.3
94 | LPPCYNFLKEQHCQK | 0.1
95 | NFLKEQHCQKASTQR | 0.4
96 | VKPLLAPHHVVAVIQ | 0.6

What follows are sequences tested on serum 1a (individual 1, early serum).
Type: binding, human

Row | Sequence | Binding of serum 1a to linear peptides of Orf14 of SARS-CoV TOR2
97 | ASTQREAEAAVKPLL | 0.4
98 | CQKASTQREAEAAVK | 0.3
99 | CYNFLKEQHCQKAST | 0.5
100 | EQHCQKASTQREAEA | 0.4
101 | FLKEQHCQKASTQRE | 0.3
102 | HCQKASTQREAEAAV | 0.6
103 | KASTQREAEAAVKPL | 0.3
104 | KEQHCQKASTQREAE | 0.4
105 | LKEQHCQKASTQREA | 0.3
106 | LPPCYNFLKEQHCQK | 0.3
107 | NFLKEQHCQKASTQR | 0.4
108 | VKPLLAPHHVVAVIQ | 0.6

Each sequence was assayed on control serum Blood-bank (commercial negative donor pooled serum).
Type: binding, human

Row | Sequence | Control Serum Blood-Bank Looped peptides | Control serum Blood-bank linear peptides
109 | ASTQREAEAAVKPLL | 0.9 | 0.5
110 | CQKASTQREAEAAVK | 0.7 | 0.2
111 | CYNFLKEQHCQKAST | 0.6 | 0.4
112 | EQHCQKASTQREAEA | 0.9 | 0.5
113 | FLKEQHCQKASTQRE | 0.9 | 0.4
114 | HCQKASTQREAEAAV | 0.9 | 0.5
115 | KASTQREAEAAVKPL | 0.6 | 0.3
116 | KEQHCQKASTQREAE | 0.9 | 0.3
117 | LKEQHCQKASTQREA | 0.9 | 0.3
118 | LPPCYNFLKEQHCQK | 0.9 | 0.2
119 | NFLKEQHCQKASTQR | 0.6 | 0.5
120 | VKPLLAPHHVVAVIQ | 0.7 | 0.7

These sequences were tested on serum 37 (individual 37).
Type: binding, human

Row | Sequence | Binding of serum 37 to linear peptides of Orf14 of SARS-CoV TOR2
121 | ASTQREAEAAVKPLL | 0.5
122 | CQKASTQREAEAAVK | 0.3
123 | CYNFLKEQHCQKAST | 0.6
124 | EQHCQKASTQREAEA | 0.5
125 | FLKEQHCQKASTQRE | 0.4
126 | HCQKASTQREAEAAV | 0.7
127 | KASTQREAEAAVKPL | 0.3
128 | KEQHCQKASTQREAE | 0.4
129 | LKEQHCQKASTQREA | 0.4
130 | LPPCYNFLKEQHCQK | 0.3
131 | NFLKEQHCQKASTQR | 0.5
132 | VKPLLAPHHVVAVIQ | 0.7

These sequences were tested on serum 62 (individual 62).
Type: binding, human

Row | Sequence | Binding of serum 62 to linear peptides of Orf14 of SARS-CoV TOR2
133 | ASTQREAEAAVKPLL | 0.4
134 | CQKASTQREAEAAVK | 0.2
135 | CYNFLKEQHCQKAST | 0.4
136 | EQHCQKASTQREAEA | 0.3
137 | FLKEQHCQKASTQRE | 0.3
138 | HCQKASTQREAEAAV | 0.7
139 | KASTQREAEAAVKPL | 0.2
140 | KEQHCQKASTQREAE | 0.2
141 | LKEQHCQKASTQREA | 0.2
142 | LPPCYNFLKEQHCQK | 0.2
143 | NFLKEQHCQKASTQR | 0.3
144 | VKPLLAPHHVVAVIQ | 0.5
